Results reported in patent US20250185666A1, “Root-Targeted Delivery of Agrochemicals using Natural Microbial Carriers” (priority 2023, published 2025).
“And” between values parts separate entries of the source, which are not always exact repeats. Equal entries are not always repeated. Marks after values point to notes of the source that are not given here.

Key:
[1] = system: Spodoptera frugiperda; experiment: Maize leaf fall armyworm damage assay after seed treatment (feeding damage and FAW mortality); type: in vivo; design: Regression for feeding damage by leaf segment, Leaf 3 Middle / Regression for feeding damage by leaf segment, Leaf 3 Tip / Regression for feeding damage by leaf segment, Leaf 4 Middle / Regression for feeding damage by leaf segment, Leaf 4 Tip / Regression for feeding damage by leaf segment, Leaf 5 Middle / Regression for feeding damage by leaf segment, Leaf 5 Tip: unit not given here; conditions: for Regression for feeding damage by leaf segment, Leaf 3 Middle / Regression for feeding damage by leaf segment, Leaf 3 Tip / Regression for feeding damage by leaf segment, Leaf 4 Middle / Regression for feeding damage by leaf segment, Leaf 4 Tip / Regression for feeding damage by leaf segment, Leaf 5 Middle / Regression for feeding damage by leaf segment, Leaf 5 Tip: coefficient vs Baseline; for Regression for FAW mortality rate (coefficient) / Regression for overall feeding damage (coefficient): vs Baseline, controls for experimental run and tray location; for Regression for FAW mortality rate (coefficient): across six leaf segments per plant; for Regression for overall feeding damage (coefficient): averaged across six leaf segments per plant
Description: An experiment was designed to measure any systemic effects of soil protists in the presence and absence of (agrochemical) insecticide on pest damage resistance for plants grown from seeds. The experiments consisted of two stages: the growth stage and the pest stage. In the growth stage, maize seeds were treated individually with one of six mixtures containing bacteria, protists, and or/agrochemicals. All treatments included heat-killed bacteria, the food source for protists (protozoa). Additional potential components of each treatment were one of two agrochemicals, or soil protists, or one of two agrochemicals plus soil protists (Table 1). Treated seeds were germinated and grown in soil-filled pots in a greenhouse. Plants were grown in surplus quantities and down-selected to 48 representative plants per treatment for each experimental run (Table 2).
In the pest stage, three individual leaves were harvested from each plant, then the Tip and Middle segments of said leaves were collected. Each of the six leaf segments from the plant were placed in individual tray wells and challenged by a single insect larva, as explained further below.
Formulations for seed treatments (Table 1) were prepared in Page's Saline 24 h prior to inoculation and held at 23° C. in darkness. Prior to application, each formulation was vortexed for 30 sec then a small aliquot (50 μL) was added directly on top of each exposed seed during planting. Based on our prior experience, this small-volume-aliquot performs similarly to more conventionally formulated seed coatings, enabling early-stage screening of experimental formulations that are available only in limited quantities.
For each experimental run, 240 pots (10-cm, TLC Square Form Pots, HC Companies) were first filled with dry, steam pasteurized screened field soil (Kalamazoo, Michigan; Coloma loamy sand). The soil was misted with water with an automated system to reach field capacity in the Corteva Agriscience greenhouse located in Indianapolis, IN for at least 4 d prior to planting. Next, 3.8 cm deep, 2 cm wide holes were created in the center of each soil-filled pots, and a single seed was placed tip cap side down 3.8 cm below the soil surface. Each seed was immediately inoculated with a seed treatment (described above, n=60 per treatment). Treated pots were then randomized in the greenhouse to reduce systematic error (FIG. 1A). The greenhouse averaged 23° C. (maximum of 30° C. day and minimum of 19° C. at night). The plants received 100 mL water from the automated system, split over 49 passes, during the first week after planting, and 200 mL water split over 98 passes during the second week after planting.
Leaf segments were harvested on 48 representative plants selected from the 60 pots per treatment (FIG. 1A). Trays were filled in a semi-random fashion with less optimal plants at the end of tray 3 and the most underdeveloped plants being discarded. Plants were numbered as they were selected during the Leaf 3 harvest, and tracked through the harvest of Leaves 4 and 5 for robustness. Maize leaves are labelled according to the order they sprout. Maize was allowed to grow for 10 d before harvesting Leaf 3 and left for another 4 d (14 d total) before harvesting Leave 4, 5 (FIG. 1B). Leaves were segmented with the distal 3.8 cm labelled as Tip. Leaf Middle segments were harvested as a 3.8-cm segment from the middle of the leaf. For smaller leaves (such as the earlier-harvested Leaf 3), the Middle abutted the Tip. For larger leaves (4th and 5th), any section between Tip and Middle segments was discarded. For agrochemicals which translocate, such as those tested here, the agrochemical accumulates in the leaf Tips. By testing both leaf Tip and Middle, the relative amount of agrochemical moved by phloem or xylem transport since the leaf sprouted can be measured (Tip) along with the agrochemical in the process of transportation during harvest (Middle). […]

[2] = Transport of 14C-labeled Chlorantraniliprole in maize (autoradiography, combustion analysis); conditions: maize (Zea mays L.), in vivo, 7 d
Description: A scaled-up version of the μ-rhizoslide was developed to work with maize. First, ^14C-labeled agrochemical was dissolved in acetone, spiked onto the wall of a glass sample vial, and the acetone evaporated. Un-radiolabeled agrochemical formulation was then added to the vial and sonicated for 20 min to distribute the ^14C-labeled material into the formulation. The formulation was then mixed with Page's Saline containing heat-killed E. coli, or with Page's Saline containing both protists and heat-killed E. coli to prepare the seed treatments formulation. As described before, the ^14C-labeled seed treatment formulations were allowed to rest in darkness for 24 h prior to application. Final radioactivity was measured at approximately 300,000 DPM per individual seed treatment. Pots were filled, and seeds planted and treated as described above. Plants were harvested at 1 week due to restricted space for work with radiolabeled material. […]
A similar experiment was conducted using ^14C-labeled Chlorantraniliprole, differing in the allocated growth period (7 vs 14 d), watering schedule (due to limitations of radioactive containment), and pot (3D printed device optimized for radio-detection vs traditional 4.5″ pot). Radioactivity in both the plant material and the soil were measured before combustion analysis was conducted on the plant material.

[3] = system: UC-1 cultures; experiment: Screen of candidate formulations for operational toxicity to UC-1 cultures; conditions: concentrated formulation
Description: Finally, candidate formulations were screened for operational toxicity to UC-1 cultures (i.e., live protists in a concentrated formulation should remain viable and actively moving). […] Both agrochemicals were used in their like-commercial formulations, which is a proprietary blend containing biocides and other ingredients needed to keep the agrochemical suspended and maintain performance.

[4] = Table 6 (Chlorantraniliprole data set)

Molecule: CNC(=O)c1cc(Cl)cc(C)c1NC(=O)c1cc(Br)nn1-c1ncccc1Cl [Chlorantraniliprole, chlorantraniliprole]
- Regression for feeding damage by leaf segment, Leaf 3 Middle [1, 4]: −36.100***
- Regression for feeding damage by leaf segment, Leaf 3 Tip [1, 4]: −65.841***
- Regression for feeding damage by leaf segment, Leaf 4 Middle [1, 4]: −6.424**
- Regression for feeding damage by leaf segment, Leaf 4 Tip [1, 4]: −46.026***
- Regression for feeding damage by leaf segment, Leaf 5 Middle [1, 4]: −2.566
- Regression for feeding damage by leaf segment, Leaf 5 Tip [1, 4]: −34.783***
- Reduction of feeding damage from Baseline, Leaf 4 Middle ([1]; in vivo): 7.2 percentage points
- Reduction of feeding damage from Baseline, Leaf 5 Middle ([1]; in vivo): 3.5 percentage points
- Feeding damage, Leaf 4 Middle ([1]; leaf harvested 14 d): 86% and 86.4%
- Feeding damage, Leaf 4 Tip ([1]; leaf harvested 14 d): 49%
- Feeding damage, Leaf 5 Middle ([1]; leaf harvested 14 d): 88%
- Regression for FAW mortality rate (coefficient) [1]: 20.341***
- Regression for overall feeding damage (coefficient) [1]: −31.836***
- Distribution of 14C-labeled Chlorantraniliprole in plant parts [2]: higher concentration of Chlorantraniliprole in earlier parts (stem, Leaf 1)
- Operational toxicity to UC-1 cultures (live protists remain viable and actively moving) [3]: satisfied all criteria

Molecule: Spinosad
- Regression for feeding damage by leaf segment, Leaf 3 Middle ([1]; Table 7 (Spinosad data set)): −45.225***
- Regression for feeding damage by leaf segment, Leaf 3 Tip ([1]; Table 7 (Spinosad data set)): −59.140***
- Regression for feeding damage by leaf segment, Leaf 4 Middle ([1]; Table 7 (Spinosad data set)): −40.880***
- Regression for feeding damage by leaf segment, Leaf 4 Tip ([1]; Table 7 (Spinosad data set)): −59.365***
- Regression for feeding damage by leaf segment, Leaf 5 Middle ([1]; Table 7 (Spinosad data set)): −10.627***
- Regression for feeding damage by leaf segment, Leaf 5 Tip ([1]; Table 7 (Spinosad data set)): −29.736***
- Reduction of feeding damage from Baseline, Leaf 4 Tip ([1]; in vivo): 58.5 percentage points
- Reduction of feeding damage from Baseline, Leaf 5 Middle ([1]; in vivo): 9.5 percentage points
- Feeding damage, Leaf 4 Tip ([1]; leaf harvested 14 d): ~35.0%
- Feeding damage, Leaf 5 Middle ([1]; leaf harvested 14 d): ~82.2%
- Regression for FAW mortality rate (coefficient) [1]: 33.342***
- Regression for overall feeding damage (coefficient) [1]: −39.981***
